From patent US5834301A, “Method of removing color from kraft wood pulps” (priority 1995, dated 1998)

Tests used:
Format in all cases: biochemical
Conditions in all cases: 1 mM reagent
[1] = system: Streptomyces sp. TUB B-12-2 endoxylanase xyl 1a
Description: (§1) Xylanase activity was routinely determined by measuring the release of reducing sugars from either 1% (w/v) alkali-soluble or water soluble oat-spelt xylan, using the Somogyi's modification Nelson method (NS) as previously described. Crude or purified enzyme preparations were diluted appropriately to obtain maximal activity consistent with a linear response. For comparative purposes, xylanase activities were measured against 1% (w/v) water soluble and water insoluble xylan from either oat-spelts or birch (Sigma). The dinitrosalicylic acid (DNS) method of Miller, Anal. Chem., 31:426-429 (1959) was used to assay xylanase activity during initial screening. Carboxymethylcellulase activity (CMCase) was assayed by replacing 1% xylan with 1% of low viscosity carboxymethyl cellulose (Sigma). Acetylated glucuronoxylan was recovered from birch wood flakes by hot water extraction. β-Xylosidase was assayed as described by Bachmann and McCarthy, J. Gen. Microbiol., 135:293-299 (1989) using 5 mM p-nitrophenyl-β-D-xylopyranoside in 50 mM potassium phosphate buffer at pH 7.0. The values of the Michaelis constant (Km) and the maximum velocity (Vmax) were determined from a Lineweaver-Burke plot of assayed activities over a range of substrate concentrations. Suitably diluted xylanases were incubated with alkali-soluble birch wood or oat spelt xylan at concentrations ranging from 0.5 to 10 mg/ml under the assay conditions given.
(§2) f. Effectors. We investigated the effects of 1 mM metal ions and other agents on the activities of purified endoxylanases (Table 14).

[2] = system: Streptomyces sp. TUB B-12-2 endoxylanase xyl 1b
Description: as §1, §2

[3] = system: Streptomyces sp. TUB B-12-2 endoxylanase xyl 2
Description: as §1, §2

[4] = system: Streptomyces sp. TUB B-12-2 endoxylanase xyl 3
Description: as §1, §2

[5] = system: Streptomyces sp. TUB B-12-2 endoxylanase xyl 4
Description: as §1, §2

In the case of `O=C(O)c1cc[c]([Hg][OH])cc1` [PHMB, p-Hydroxymercury-benzoate], the “Relative activity (%) xyl 1a” value [1] is reported as 100%, the “Effect on activity of xyl 1b (in words)” value [2] is reported as “completely inactivated” and the “Relative activity (%) xyl 1b” value [2] is reported as 0%. For the same compound, the “Relative activity (%) xyl 2” value [3] was 90%, the “Relative activity (%) xyl 3” value [4] was 96% and the “Relative activity (%) xyl 4” value [5] was 95%.
In the case of `O=S(=O)(F)Cc1ccccc1` [PMSF, Phenylmethylsulfonylfluoride], the “Effect on activity of xyl 1a (in words)” value [1] is reported as “did not influence the activity”, the “Relative activity (%) xyl 1a” value [1] is reported as 95% and the “Effect on activity of xyl 1b (in words)” value [2] is reported as “did not influence the activity”. The “Relative activity (%) xyl 1b” value [2] was 87%, the “Effect on activity of xyl 2 (in words)” value [3] was “did not influence the activity” and the “Relative activity (%) xyl 2” value [3] was 100%. For the same compound, the “Effect on activity of xyl 3 (in words)” value [4] was “did not influence the activity”, the “Relative activity (%) xyl 3” value [4] was 100% and the “Effect on activity of xyl 4 (in words)” value [5] was “did not influence the activity”. For the same compound, the “Relative activity (%) xyl 4” value [5] was 100%.
For N-Bromosuccinamide, the “Effect on activity of xyl 1a (in words)” value [1] was “totally inactivated”, the “Relative activity (%) xyl 1a” value [1] was 0% and the “Effect on activity of xyl 1b (in words)” value [2] was “totally inactivated”. For the same compound, the “Relative activity (%) xyl 1b” value [2] was 0%, the “Effect on activity of xyl 2 (in words)” value [3] was “totally inactivated” and the “Relative activity (%) xyl 2” value [3] was 0%. For the same compound, the “Effect on activity of xyl 3 (in words)” value [4] was “totally inactivated”, the “Relative activity (%) xyl 3” value [4] was 0% and the “Effect on activity of xyl 4 (in words)” value [5] was “totally inactivated”. The “Relative activity (%) xyl 4” value [5] was 0%.
